Experimental data taken from publication PMC3626541, “A first in human, safety, pharmacokinetics, and clinical activity phase I study of once weekly administration of the Hsp90 inhibitor ganetespib (STA-9090) in patients with solid malignancies” (BMC Cancer, 2013).

System: patients with advanced solid tumors
Experiment: Safety: adverse events (NCI CTCAE v3.0), ECG
Format: in vivo, human
Procedure: Patients’ demographics and medical history were recorded at baseline. Physical examination and PS were assessed at baseline and on Day 1 of each cycle. Adverse events (AEs), vital signs, hematology and chemistry values, and creatinine clearance were assessed at baseline and weekly during treatment. Toxicity was graded using National Cancer Institute Common Terminology Criteria for Adverse Events (NCI CTCAE), version 3.0. An electrocardiogram (ECG) was performed at baseline, before and after treatment on Days 1 and 15 of Cycles 1 and 2, and on Day 15 of even-numbered cycles thereafter. CT scans were done at baseline and every 8 weeks thereafter. Tumor response was assessed using Response Evaluation Criteria in Solid Tumors (RECIST, v1.0), with confirmation of responses performed at least 4 weeks later.

CC(C)c1cc(-c2n[nH]c(=O)n2-c2ccc3c(ccn3C)c2)c(O)cc1O [Ganetespib, 5-[2,4-dihydroxy-5-(1 methyl-ethyl)phenyl]-2,4 dihydro-4-(1-methyl-1H indol-5 yl)-3H-1,2,4 triazole-3-one]
Any event, AE of any grade, Number (%) of patients (7-114 mg/m^2, n = 25): 25 (100) n (%) | Any event, CTCAE Grade 3 and 4 AE, Number (%) of patients (7-114 mg/m^2, n = 25): 17 (68) n (%) | Any event, serious adverse events, Number (%) of patients (7-114 mg/m^2, n = 25): 6 (24) n (%) | Arthralgia, CTCAE Grade 3 and 4 AE, Number (%) of patients (7-114 mg/m^2, n = 25): 1 (4) n (%) | Asthenia, AE of any grade, Number (%) of patients (7-114 mg/m^2, n = 25): 2 (8) n (%) | Asthenia, CTCAE Grade 3 and 4 AE, Number (%) of patients (7-114 mg/m^2, n = 25): 1 (4) n (%) | Asthenia, serious adverse events, Number (%) of patients (7-114 mg/m^2, n = 25): 0 n (%) | Back pain, AE of any grade, Number (%) of patients (7-114 mg/m^2, n = 25): 4 (16) n (%) | Constipation, AE of any grade, Number (%) of patients (7-114 mg/m^2, n = 25): 5 (20) n (%) | Decreased appetite, AE of any grade, Number (%) of patients (7-114 mg/m^2, n = 25): 2 (8) n (%) | Dehydration, AE of any grade, Number (%) of patients (7-114 mg/m^2, n = 25): 1 (4) n (%) | Dehydration, CTCAE Grade 3 and 4 AE, Number (%) of patients (7-114 mg/m^2, n = 25): 1 (4) n (%) | Dehydration, serious adverse events, Number (%) of patients (7-114 mg/m^2, n = 25): 0 n (%) | Diarrhea, CTCAE Grade 3 and 4 AE, Number (%) of patients (7-114 mg/m^2, n = 25): 1 (4) n (%) | Dizziness, AE of any grade, Number (%) of patients (7-114 mg/m^2, n = 25): 1 (4) n (%) | Dry mouth, AE of any grade, Number (%) of patients (7-114 mg/m^2, n = 25): 2 (8) n (%) | Dyspnea, AE of any grade, Number (%) of patients (7-114 mg/m^2, n = 25): 4 (16) n (%) | Extremity pain, AE of any grade, Number (%) of patients (7-114 mg/m^2, n = 25): 4 (16) n (%) | Fatigue, AE of any grade, Number (%) of patients (7-114 mg/m^2, n = 25): 12 (48) n (%) | Fatigue, CTCAE Grade 3 and 4 AE, Number (%) of patients (7-114 mg/m^2, n = 25): 1 (4) n (%) | Headache, AE of any grade, Number (%) of patients (7-114 mg/m^2, n = 25): 2 (8) n (%) | Hyperbilirubinemia, CTCAE Grade 3 and 4 AE, Number (%) of patients (7-114 mg/m^2, n = 25): 1 (4) n (%) | Hypokalemia, AE of any grade, Number (%) of patients (7-114 mg/m^2, n = 25): 2 (8) n (%) | Hypokalemia, CTCAE Grade 3 and 4 AE, Number (%) of patients (7-114 mg/m^2, n = 25): 0 n (%) | Hyponatremia, CTCAE Grade 3 and 4 AE, Number (%) of patients (7-114 mg/m^2, n = 25): 3 (12) n (%) | Hypophosphatemia, AE of any grade, Number (%) of patients (7-114 mg/m^2, n = 25): 5 (20) n (%) | Hypophosphatemia, CTCAE Grade 3 and 4 AE, Number (%) of patients (7-114 mg/m^2, n = 25): 2 (8) n (%) | Insomnia, AE of any grade, Number (%) of patients (7-114 mg/m^2, n = 25): 2 (8) n (%) | Musculoskeletal chest pain, AE of any grade, Number (%) of patients (7-114 mg/m^2, n = 25): 2 (8) n (%) | Nausea, AE of any grade, Number (%) of patients (7-114 mg/m^2, n = 25): 7 (28) n (%) | Peripheral edema, AE of any grade, Number (%) of patients (7-114 mg/m^2, n = 25): 3 (12) n (%) | Pneumonia, serious adverse events, Number (%) of patients (7-114 mg/m^2, n = 25): 0 n (%) | Rash, AE of any grade, Number (%) of patients (7-114 mg/m^2, n = 25): 4 (16) n (%) | Serum amylase elevated, CTCAE Grade 3 and 4 AE, Number (%) of patients (7-114 mg/m^2, n = 25): 1 (4) n (%) | Spinal cord compression, CTCAE Grade 3 and 4 AE, Number (%) of patients (7-114 mg/m^2, n = 25): 2 (8) n (%) | Urinary tract infection, AE of any grade, Number (%) of patients (7-114 mg/m^2, n = 25): 2 (8) n (%) | Vomiting, AE of any grade, Number (%) of patients (7-114 mg/m^2, n = 25): 4 (16) n (%) | Weight decreased, AE of any grade, Number (%) of patients (7-114 mg/m^2, n = 25): 1 (4) n (%) | ALT elevated, AE of any grade, Number (%) of patients (7-114 mg/m^2, n = 25, first of two ALT elevated lines): 5 (20) n (%) | ALT elevated, AE of any grade, Number (%) of patients (7-114 mg/m^2, n = 25, second of two ALT elevated lines): 3 (12) n (%) | Incidence of diarrhea (7–114 mg/m^2 dose levels): 80% | Incidence of fatigue (7–114 mg/m^2 dose levels): 48% | ALT elevation, CTCAE Grade 3 and 4 AE, Number (%) of patients (150-216 mg/m^2, n = 22): 1 (4.5) n (%) | AST elevated, AE of any grade, Number (%) of patients (150-216 mg/m^2, n = 22): 4 (18.2) n (%) | Abdominal distension, AE of any grade, Number (%) of patients (150-216 mg/m^2, n = 22): 3 (13.6) n (%) | Abdominal pain, AE of any grade, Number (%) of patients (150-216 mg/m^2, n = 22): 10 (45.5) n (%) | Abdominal pain, serious adverse events, Number (%) of patients (150-216 mg/m^2, n = 22): 1 (4.5) n (%) | Anemia, AE of any grade, Number (%) of patients (150-216 mg/m^2, n = 22): 5 (22.7) n (%) | Any event, AE of any grade, Number (%) of patients (150-216 mg/m^2, n = 22): 22 (100) n (%) | Any event, CTCAE Grade 3 and 4 AE, Number (%) of patients (150-216 mg/m^2, n = 22): 14 (63.6) n (%) | Any event, serious adverse events, Number (%) of patients (150-216 mg/m^2, n = 22): 6 (27.3) n (%) | Arthralgia, CTCAE Grade 3 and 4 AE, Number (%) of patients (150-216 mg/m^2, n = 22): 0 n (%) | Asthenia, AE of any grade, Number (%) of patients (150-216 mg/m^2, n = 22): 4 (18.2) n (%) | Asthenia, CTCAE Grade 3 and 4 AE, Number (%) of patients (150-216 mg/m^2, n = 22): 1 (4.5) n (%) | Asthenia, serious adverse events, Number (%) of patients (150-216 mg/m^2, n = 22): 1 (4.5) n (%) | Back pain, AE of any grade, Number (%) of patients (150-216 mg/m^2, n = 22): 2 (9.1) n (%)
